The values that follow are results of earlier work, collected in patent US20230181510A1, “COMPOSITION AND METHODS OF RETINOIC ACID” (priority 2020, published 2023).

Data set [1] relates to collagen. The conditions noted are these: topical treatment.
Data set [2] deals with human skin. The settings on record: topical stabilized treatment, human skin in vitro and in vivo.

On to retinoic acid, for which the Collagen regeneration entry in data set [1] was “stimulates collagen regeneration”. Moreover, in data set [2], the “Expression of HAS genes and HA production” value is “induce the expression of hyaluronic acid (HA) synthase (HAS) genes and HA production”.
